Measured values: patent US9815843B2, “Compound, photosensitive resin composition comprising the same, and color filter” (Samsung SDI Co., Ltd., priority 2015, dated 2017)

Test: Solubility measurement in dilution solvent (PGMEA)
Assay type: physicochemical
Settings: 0.5 g compound, 25° C., 100 rpm, one hour
Description: A dilution solvent (PGMEA) is respectively added to 0.5 g of the compounds according to Synthesis Examples 8 to 17 and Comparative Synthesis Examples 1 and 2, and each solution is stirred with a mixrotar (MIXROTAR VMR-5, Iuchi Seieido Co., Ltd.) at 25° C. and 100 rpm for one hour.
Reference for Solubility Evaluation
Greater than or equal to 10 wt % of a compound (a solute) is dissolved based on the total amount of a dilution solvent: ∘
Greater than or equal to 5 wt % but less than 10 wt % of a compound (a solute) is dissolved based on the total amount of a dilution solvent: Δ
Less than 5 wt % of a compound (a solute) is dissolved based on the total amount of a dilution solvent: X

Structure (SMILES): CCCCCOc1c(Cl)c(Cl)c2c(c1Cl)C1=NC/2=N\c2c3c(Cl)c(Cl)c(OCCCCC)c(Cl)c3c3[n]2[Zn][n]2/c(c4c(Cl)c(Cl)c(OCCCCC)c(Cl)c4/c2=N/1)=N\C1=NC(=N\3)/c2c(Cl)c(Cl)c(OCCCCC)c(Cl)c21 [Comparative Synthesis Example 2]
- Solubility: Δ (Greater than or equal to 5 wt % but less than 10 wt % of a compound (a solute) is dissolved based on the total amount of a dilution solvent)
